Key:
[1] = tested on: FLAG-hCAR1 nuclear localization; assay: Immunofluorescence of FLAG-hCAR1 in U2OS cells; type: cell-based, human; conditions: 5 μM CINPA1, 2 h
Protocol: Briefly, CAR binding to PGC-1α coactivator peptide was determined by using the LanthaScreen® fluorescent coregulator peptide assay. Fluorescein-labeled PGC-1α peptide (125 nM) was complexed with GST-hCAR-LBD (5 nM) and Tb-anti-GST antibody (5 nM) as described in Experimental Procedures. […] Lysates were prepared, and CAR expression was analyzed by Western blot using CAR monoclonal antibody (Clone N4111, R&D Systems). β-actin was used as a loading control. […] Briefly, U2OS cells were transfected to express FLAG-hCAR1. […] Secondary antibody labeled with Alexa Fluor® 555 dye was used to visualize FLAG-tagged hCAR1 (shown in the second column) using a NikonC 1Si microscope. Nuclei were stained with DAPI (shown in the first column).
U2OS cells were transiently transfected to express FLAG-hCAR1. […] Cells were fixed by using a 4% paraformaldehyde solution (Sigma), permeabilized by using 0.5% Triton X-100 in PBS, and incubated with FLAG-antibody overnight at 4° C. Cells were washed three times with PBS following each step. Secondary antibody labeled with Alexa Fluor® 555 dye was used to visualize FLAG-tagged hCAR1 (red) using a NikonC 1Si microscope. Nuclei were stained with DAPI (blue).

[2] = tested on: HepG2, LS174T, and HEK293T cells; assay: Cell viability (CellTiter-Glo)
Protocol: Cells were treated with indicated compounds for 24 h, and viability was measured by using CellTiter-Glo® reagent. […] Cell viability was measured 4 days post treatment by using CellTiter-Glo® reagent. Viability of cells treated with DMSO (negative control) was set to 100% in all assays.

GST-hCAR-LBD = target: T1, GST-hCAR-LBD (Homo sapiens, UniProt Q14994); assay: CoAct binding inverse agonist assay (LanthaScreen TR-FRET, fluorescent PGC-1α coactivator recruitment/repression); type: biochemical
T1 construct: purchased Life Technologies (Carlsbad, Calif.) or Invitrogen (Carlsbad, Calif.)
T1 sequence (Q14994 109-352 limits assumed): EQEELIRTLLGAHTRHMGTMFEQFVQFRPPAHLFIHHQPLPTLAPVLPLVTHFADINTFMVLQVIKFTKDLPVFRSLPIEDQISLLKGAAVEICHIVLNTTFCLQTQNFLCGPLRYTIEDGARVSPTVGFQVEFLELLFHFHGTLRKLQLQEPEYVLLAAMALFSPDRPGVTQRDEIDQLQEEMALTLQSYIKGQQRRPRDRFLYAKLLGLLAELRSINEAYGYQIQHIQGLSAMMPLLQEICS

[3] = tested on: CAR-regulated genes in HepG2-hCAR1 cells; assay: Quantitative real-time PCR in HepG2-hCAR1 cells; type: cell-based, human
From the text: RNA was extracted, cDNA synthesized, and gene expression analyzed by performing real-time PCR using Taqman probes for each gene. […] LS174T cells were maintained in 10% charcoal-dextran-treated, FBS media for 4 days before the experiment. […] Briefly, human primary hepatocytes (HPH) were maintained in William's E media with supplements for 4 days before treatment. […] RNA extracted was used for cDNA synthesis and measured by performing quantitative real-time PCR assays with Taqman probes.
Briefly, LS174T were maintained in 10% charcoal-dextran treated-FBS media for 4 days prior to the experiment. […] For the data shown in both FIG. 12A and FIG. 12B, RNA extracted was used for cDNA synthesis and measured by quantitative real-time PCR with Taqman probes. MDR1 mRNA was normalized to the internal control 18S and DMSO treated samples were set to 1. *, p<0.05 when compared to DMSO samples.
Cell lines or human hepatocytes were treated with chemicals for 24-48 hours before RNA was extracted and purified by using the Maxwell 16LEV simplyRNA tissue kit (Promega). Then, cDNA was prepared from 2 μg of RNA, and diluted cDNA was used to perform quantitative RT-PCR assays by using TaqMan probes (ABI; 7500 Thermocycler) with 18S as the internal standard.

CCOC(=O)Nc1ccc2c(c1)N(C(=O)CN(CC)CC)c1ccccc1CC2 [CINPA1]
nuclear localization of CAR [1]: does not alter the nuclear localization of CAR
cytotoxicity at higher concentrations ([2]; 30 μM and 60 μM): cytotoxic to varying degrees
general cytotoxicity ([2]; concentration range effective in inhibiting CAR and PXR, 4-day assay): does not exhibit general cytotoxicity
CAR-LBD interaction with PGC-1α coactivator peptide (GST-hCAR-LBD; dose response, FIG. 6A): efficiently inhibits
IC50 (GST-hCAR-LBD; read-out: IC50 (CAR inverse agonistic activity)): 690 nM
MDR1 mRNA level ([3]; HepG2-hCAR1, 0.1 μM CINPA1 or 1 μM PK11195, 24 h): reduced MDR1 levels
CYP2B6 mRNA level ([3]; HepG2-hCAR1, 1 μM, 24 h): substantially and significantly attenuated
CYP3A4 mRNA level ([3]; HepG2-hCAR1, 1 μM, 24 h): substantially and significantly attenuated
